Measurements: patent publication US20040087561A1, “Treatment of sexual dysfunction” (priority 2000, published 2004)

How the values were obtained:
[1] = test system: ovariectomised female Sprague Dawley rats; experiment: Inhibition of female rat sexual proceptivity by NMB and its antagonism; format: in vivo; settings: pre-treatment 15 mg/kg i.p. 1 h before NMB 100 ng i.c.v.; progesterone-treated rats; blockade not total
Procedure: Ovariectomised female rats (Sprague Dawley, obtained from Charles River, UK) were stereotaxically implanted (coordinates 0.89 mm behind Bregma, 1.3 mm lateral and 2.5 mm vertical) with stainless steel cannulae (6 mm long, O.D. 0.75 mm), held in place with dental cement. Animals were housed in groups of three and returned to a reversed lighting system of 12 h light:dark (lights off 5.00-17.00 h). Correct placement of the cannulae was assessed post-mortem. Rats were used for tests two weeks after ovariectomy (one week after cannulation). The experiments started at least 5 h into the dark period. Forty eight hours before tests, the animals were primed with 5 μg oestradiol benzoate (OB) (s.c, in corn oil) and adapted to the apparatus (in the absence of stimuli animals) for 10 min on 2 consecutive days prior testing. The 10 min test was carried out as previously described. The difference in the percentage of time spent investigating male minus female was calculated, out of the total time spent investigating stimuli.
Progesterone (Prog, 0.5 mg/0.1 ml) was dissolved in corn oil and administered subcutaneously (s.c.), 4 h before test, to induce proceptive behaviour. Compound (1) (15 mg/kg, i.p.) was dissolved in 50% 2-hydroxypropyl-β-cyclodextrin in saline and administered 1 h before the i.c.v. administration. Neuromedin B was obtained from Bachem, UK. It was dissolved in isotonic saline and administered i.c.v. over a 30 sec period, with the aid of a pump set to deliver a flow of 10 μl/min, 10 min before tests. The dosing volume was 5 μl/rat. Each rat received a total amount of 100 ng.
From the present study we can conclude that stimulation of BB1 receptors with an agonist results in inhibition of proceptive behaviour. This inhibitory effect may be prevented by the presence of an antagonist. e.g. Compound (1) In FIG. 5 the bars represent percentage of time spent investigating male, minus the percentage of time spent investigating the female stimuli+SEM, (n=8-12 per group). ***P<0.001 vs progesterone (One-way ANOVA followed by Dunnett's test).

[2] = test system: ovariectomised female Sprague Dawley rats; experiment: Plasma sexual hormone levels (radioimmunoassay) in ovariectomised female rats; format: in vivo, rat
Procedure: Ovariectomised adult female Sprague Dawley rats (180-200 g) were housed in groups of 6 in a reversed lighting system of 12 h light:dark (lights off 7.00-19.00 h). They were used for the experiments at least two weeks after ovariectomy. Forty eight hours before tests, the animals were primed with oestradiol benzoate (5 μg/0.1 ml in corn oil, s.c.). Progesterone (0.5 mg/0.1 ml, in corn oil, s.c.) was administered 4 h before blood collection, as a positive control. Compound (1) (3-10 mg/kg, i.p.) was administered in 50% 2-hydroxypropyl-β-cyclodextrin, 1 h prior to blood collection. Blood was collected from the trunk, after decapitation. It was immediately centrifuged (3500 r.p.m., 4° C., 5 min) and the plasmas frozen until assayed for hormonal content, using commercially available radioimmunoassay kits (^125I-labelled hormones) for oestradiol, progesterone, LH, FSH and prolactin.

[3] = test system: Female New Zealand rabbits; experiment: Pelvic nerve-stimulated female genital blood flow, anaesthetised rabbit model of sexual arousal; format: in vivo; settings: 15 mg/kg sc
Procedure: Female New Zealand rabbits (2.5 kg) were pre-medicated with a combination of Medetomidine (Domitor®) 0.5 ml/kg im., and Ketamine (Vetalar®) 0.25 ml/kg i.m. whilst maintaining oxygen intake via a face mask. The rabbits were tracheotomised using a Portex™ uncuffed endotracheal tube 3 ID., connected to ventilator and maintained at a ventilation rate of 30-40 breaths per minute, with an approximate tidal volume of 18-20 ml, and a maximum airway pressure of 10 cm H2O. Anaesthesia was then switched to Isoflurane and ventilation continued with O2 at 2 l/min. The right marginal ear vein was cannulated using a 23G or 24G catheter, and Lactated Ringer solution perfused at 0.5 ml/min. The rabbit was maintained at 3% Isoflurane during invasive surgery, dropping to 2% for maintenance anaesthesia.
The left groin area of the rabbit was shaved and a vertical incision was made approximately 5 cm in length along the thigh. […] Systolic and diastolic pressures were measured, and the mean arterial pressure calculated using the formula (diastolic ×2+systolic)÷3. Heart rate was measured via the pulse oxymeter and Po-ne-mah data acquisition software system (Ponemah Physiology Platform, Gould Instrument Systems Inc). […] A frequency response curve was determined at the start of each experiment in order to determine the optimum frequency to use as a sub-maximal response, normally 4 Hz. […]

[4] = Compound (1) 3-10 mg/kg 1 h, progesterone 0.5 mg/0.1 ml s.c. 4 h before blood collection, vs vehicle
[5] = Compound (1) 3-10 mg/kg, 1 h before blood collection

## COc1ccc(C2(CNC(=O)[C@](C)(Cc3c[nH]c4ccccc34)NC(=O)Nc3ccc([N+](=O)[O-])cc3)CCCCC2)nc1 [Compound (1), (S) 3-(1H-Indol-3-yl)-N-[1-(5-methoxy-pyridin-2-yl)-cyclohexyl-methyl]-2-methyl-2-[3-(4-nitro-phenyl)-ureido]-propionamide]
[1]
  antagonism of the inhibitory effect of NMB on proceptivity: prevented the inhibitory effect of NMB
[2]; [4]
  LH plasma levels: no effect
  progesterone plasma levels: no effect
[2]; [5]
  FSH plasma levels: no effect
  oestradiol plasma levels: no effect
  prolactin plasma levels: no effect
[3]
  pelvic-nerve stimulated (PNS) increases in genital (vaginal and clitoral) blood flow: potent enhancer
